The values that follow come from patent US7098334B2 (Industrial Research Limited, priority 2002, dated 2006).

The assay addresses T1, human MTAP (Homo sapiens, UniProt Q13126).
T1 construct: inferred from pQE32 vector and Ni-NTA purification) (N); made in house; host or cells: E. coli
T1 sequence (Q13126 1-283): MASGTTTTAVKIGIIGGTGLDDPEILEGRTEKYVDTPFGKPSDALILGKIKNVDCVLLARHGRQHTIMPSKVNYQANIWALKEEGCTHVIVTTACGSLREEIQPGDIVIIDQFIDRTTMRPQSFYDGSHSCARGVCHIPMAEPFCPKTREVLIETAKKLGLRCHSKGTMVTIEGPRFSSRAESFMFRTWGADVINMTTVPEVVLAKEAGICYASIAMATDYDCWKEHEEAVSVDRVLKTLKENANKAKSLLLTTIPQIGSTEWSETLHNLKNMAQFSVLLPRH
The assay is described as follows: Enzyme inhibition assay, MTAP (slow-onset inhibition constants). The class given is biochemical. Here is the method: Ki as shown in Tables 1 and 2 is the initial inhibition constant formed by the enzyme-inhibitor complex, and Ki* is the equilibrium dissociation constant for inhibition that is observed following a period of slow-onset, tight binding inhibition. Ki* is the biologically effective constant.
Enzyme assays were conducted to assess the effectiveness of selected compounds of the invention as inhibitors of MTAP and MTAN.
Enzymes.—The human MTAP protein was cloned into pQE32 expression vector and transformed into E. coli. Induction cultures containing 1 L (25 mg/L) and 50 μg/mL ampicillin were inoculated with 1 mL overnight grown starter-culture and incubated at 37° C. When the cultures reached an OD of ≈0.6 they were induced with 1.5 mM IPTG for 6 to 8 hours. Cells were harvested by centrifugation at 5000 rpm for 30 min, and subsequently resuspended in a buffer (20 mM imidazole, 300 mM NaCl, 0.2 mM phenylmethylsulfonyl fluoride (PMSF), 100 mM Tris, pH 8.0) containing a small amount of lysozyme to weaken the cell membrane. Cells were lysed with a French press. The insoluble material was removed by high-speed centrifugation. The cell extract was further clarified with 35% ammonium sulfate precipitation followed by high-speed centrifugation. The clarified cell extract was then applied to a 5 mL Ni-NTA column that had previously been equilibrated with the binding buffer. Further chromatographic steps were carried out by FPLC. The column was washed with 10 volumes of 50 mM imidazole, 300 mM NaCl, and 100 mM Tris, pH 8.0, and the protein was eluted with a buffer containing a 50–250 mM gradient of imidazole, 300 mM NaCl, 1 M Tris, pH 8.0. The purity of the protein was verified by running polyacrylamide gel followed by Coomassie staining. The protein was subsequently dialyzed in 50 mM NaCl, 2 mM dithiothreitol (DTT) and 50 mM Tris, pH 7.4, and was concentrated to 10 mg/mL. The purified protein was stored at −80° C. in 100 μL to 150 μL aliquots.
Inhibitors.—Inhibitor concentrations were determined by the UV absorbance spectrum using the published millimolar extinction coefficients for 9-dazadenine of 8.5 at 275 nm at pH 7.0.
Assays.—The direct spectrophotometric assay for the conversion of MTA into adenine was measured as the decrease in absorbance at 274 nm. At 274 nm, Δε between MTA and adenine is at a maximum and produces a spectral change of 1.6 absorbance units/cm/mM (DeWolf, W. E. Jr., Fullin, F. A., and Schramm, V. L. (1979) J. Biol. Chem. 254, 10868–10875)
This concentration corresponds to an OD of 0.7–1.1 at 274 nM. The formation of product was monitored as a decrease in absorbance at 274 nm. Conditions for Ki* determination used high concentrations of substrate. Two controls, one having no inhibitor and the other no enzyme were included in the experiment. The Ki values MTAP for the various compounds were calculated by fitting in the ratio of initial rates in the presence of inhibitor to without any inhibitor versus the inhibitor concentration, for the known Km and substrate concentration into the following expression.
Where Vo′ is the rate in the presence of inhibitor • Vo rate in the absence of inhibitor • [I] inhibitor concentration • And [S] is the substrate concentration
And the Ki* was calculated by fitting to the following expression
Where Vs′ is the steady-state rate following attainment of equilibrium in the presence inhibitor, and Vs is the steady-state rate in the control having no inhibitor. Both these equations are valid for competitive type inhibition.

Read-outs that look alike come from different tables or passages of the source.

Consider `CSC[C@H]1N[C@@H](c2c[nH]c3c(N)ncnc23)C(O)[C@H]1O` (stereo partly shown) [5′-methylthio-ImmA], for which the Ki reads like this: (MTA at 150 μM, Km=2.5 μM, read-out: Ki (FIG. 1, inhibition of MTAP at varying concentrations)) 107 pM; (MTAP, equilibrium dissociation constant after slow-onset, tight binding inhibition, read-out: Ki*) 90 ± 18 pM; (MTAP, initial inhibition constant, read-out: Ki) 5000 ± 500 pM. In addition, the “Ki*” value (MTAP, equilibrium dissociation constant after slow-onset, tight binding inhibition) is “in the pM range”.
